We go through one compound from ChEMBL document CHEMBL4507279, “Data for DCP probe BI-9627” (2021).

The structures appear in SMILES notation.

Data set [1] addresses Adenosine receptor A2a (Homo sapiens) (UniProt P29274). Put plainly: A2A/HU Eurofins-Panlabs selectivity data (BI). To be noted: Compound concentration 10.0 uM.
Data set [2] deals with Sodium channel alpha subunit (site 2) (Homo sapiens, UniProt P35498+P35499+Q01118+Q14524+Q15858+Q99250+Q9NY46+Q9UI33+Q9UQD0+Q9Y5Y9). Put plainly: NA+/SITE2AG Eurofins-Panlabs selectivity data (BI). It is filed as protein assay, Cavia porcellus. On the set-up: mode of action antagonist. To be noted: guinea pig; compound concentration 30 uM; read-out: % Ctrl.
Data set [3] deals with D(2) dopamine receptor (Homo sapiens) (UniProt P14416). In words: D2S/HU Eurofins-Panlabs selectivity data (BI). The note with it: Compound concentration 10.0 uM.
Sequence of D(2) dopamine receptor (Homo sapiens) (P14416 whole entry): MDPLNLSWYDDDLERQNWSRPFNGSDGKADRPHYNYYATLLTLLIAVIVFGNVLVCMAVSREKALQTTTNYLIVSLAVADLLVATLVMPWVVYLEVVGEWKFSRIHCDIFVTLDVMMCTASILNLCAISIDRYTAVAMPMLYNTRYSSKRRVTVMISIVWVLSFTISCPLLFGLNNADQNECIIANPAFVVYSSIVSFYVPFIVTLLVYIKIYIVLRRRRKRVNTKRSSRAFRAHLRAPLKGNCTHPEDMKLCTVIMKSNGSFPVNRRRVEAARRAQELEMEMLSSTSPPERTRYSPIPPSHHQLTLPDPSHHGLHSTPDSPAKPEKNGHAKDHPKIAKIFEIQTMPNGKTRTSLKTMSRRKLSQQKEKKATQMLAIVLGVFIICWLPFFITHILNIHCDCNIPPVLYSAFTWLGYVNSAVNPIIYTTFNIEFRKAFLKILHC
Data set [4] addresses Sigma intracellular receptor 2 (Homo sapiens) (UniProt Q5BJF2). In words: SIGMA2/R Eurofins-Panlabs selectivity data (BI). The note with it: Rattus norvegicus; Compound concentration 10.0 uM.
The target in data set [5] is P2X purinoceptor (Oryctolagus cuniculus) (UniProt G1U3D6). Put plainly: P2X/RB Eurofins-Panlabs selectivity data (BI). To be noted: Compound concentration 10.0 uM.
Sequence of P2X purinoceptor (Oryctolagus cuniculus) (G1U3D6 as listed by the source): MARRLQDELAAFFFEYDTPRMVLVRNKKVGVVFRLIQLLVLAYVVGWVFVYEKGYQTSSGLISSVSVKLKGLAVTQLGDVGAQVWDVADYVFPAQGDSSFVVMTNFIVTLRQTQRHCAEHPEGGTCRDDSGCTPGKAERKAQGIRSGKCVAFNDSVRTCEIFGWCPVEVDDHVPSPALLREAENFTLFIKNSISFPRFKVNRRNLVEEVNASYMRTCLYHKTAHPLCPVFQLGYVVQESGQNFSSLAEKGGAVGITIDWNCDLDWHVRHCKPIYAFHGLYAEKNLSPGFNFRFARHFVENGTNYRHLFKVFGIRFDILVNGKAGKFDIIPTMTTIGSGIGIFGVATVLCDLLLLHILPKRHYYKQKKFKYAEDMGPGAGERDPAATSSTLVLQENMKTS

Sequence of Adenosine receptor A2a (Homo sapiens) (P29274 whole entry): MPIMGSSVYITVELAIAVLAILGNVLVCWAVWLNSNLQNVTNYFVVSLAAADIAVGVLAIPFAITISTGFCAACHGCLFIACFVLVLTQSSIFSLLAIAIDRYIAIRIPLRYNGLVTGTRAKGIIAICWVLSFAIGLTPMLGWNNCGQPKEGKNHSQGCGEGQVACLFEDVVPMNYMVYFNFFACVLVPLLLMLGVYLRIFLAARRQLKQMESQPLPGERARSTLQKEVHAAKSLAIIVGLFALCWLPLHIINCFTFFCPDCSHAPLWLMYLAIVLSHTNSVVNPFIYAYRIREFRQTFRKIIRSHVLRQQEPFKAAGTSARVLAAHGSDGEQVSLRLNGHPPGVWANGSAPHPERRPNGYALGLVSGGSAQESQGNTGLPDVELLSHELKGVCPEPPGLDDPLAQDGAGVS
Sequence of Sigma intracellular receptor 2 (Homo sapiens) (Q5BJF2 whole entry): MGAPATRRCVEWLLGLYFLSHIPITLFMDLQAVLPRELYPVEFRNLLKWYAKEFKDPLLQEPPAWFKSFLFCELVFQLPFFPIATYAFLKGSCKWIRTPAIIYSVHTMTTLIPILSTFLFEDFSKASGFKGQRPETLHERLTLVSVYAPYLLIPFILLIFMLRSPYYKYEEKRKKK

Consider `CC(=O)N1CCC(c2ccc(C(=O)NC(=N)N)cc2C(F)(F)F)CC1` [BI 9627], for which the residual activity in data set [1] is 86%; in data set [3], 110%; in data set [4] it was 90%; in data set [5], 98%. Further, the activity at 30 µM in data set [2] is reported as 100% (not active).
